Data on one compound can be found in patent US9056847B2, “Activity based probes (ABPs) interacting with glycosidases” (ACADEMISCH MEDISCH CENTRUM BIJ UNIVERSITEIT VAN AMSTERDAM, priority 2010, dated 2015).

The experiment addresses GBA1 (Homo sapiens (Human), UniProt P04062). Kind of experiment: Kinetic constants of GBA1 inhibition (Table 2). To be noted: Table 2 kinetic constants. Type of experiment: biochemical.

Each structure is given as a SMILES string.

GBA1, sequence (P04062 40-536): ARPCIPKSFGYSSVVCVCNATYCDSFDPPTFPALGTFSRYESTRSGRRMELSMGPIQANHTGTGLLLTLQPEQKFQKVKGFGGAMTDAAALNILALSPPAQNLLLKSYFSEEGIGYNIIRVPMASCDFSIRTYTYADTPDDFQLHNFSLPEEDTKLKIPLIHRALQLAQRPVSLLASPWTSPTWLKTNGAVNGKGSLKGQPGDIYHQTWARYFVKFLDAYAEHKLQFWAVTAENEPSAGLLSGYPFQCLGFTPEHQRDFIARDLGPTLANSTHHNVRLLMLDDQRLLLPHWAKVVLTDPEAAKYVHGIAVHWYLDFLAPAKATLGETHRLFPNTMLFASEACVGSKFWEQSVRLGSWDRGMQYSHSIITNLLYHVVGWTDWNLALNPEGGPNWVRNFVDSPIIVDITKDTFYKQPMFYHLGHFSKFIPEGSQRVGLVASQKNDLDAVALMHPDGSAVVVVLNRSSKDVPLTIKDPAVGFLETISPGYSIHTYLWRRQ

As for `[N-]=[N+]=NC[C@@H]1[C@@H](O)[C@H](O)[C@@H](O)[C@@H]2O[C@H]12` [KY170, (2S,3R,4S,5S)-8-azido-8-deoxy-cyclophellitol], the ki came out at 0.0237 min⁻¹.
